Assay results reported in patent publication US9617310B2 (priority 2013, dated 2017).

Assays:
Assay type in all cases: cell-based
[1] = test system: genotype 1b stable HCV replicon (Con1) in Huh-7-derived cells; assay: Stable subgenomic HCV replicon, genotype 1b, Renilla luciferase; details: Hepatitis C virus, stable replicon genotype 1b, 72 h, read-out: EC50 1B RLUC
Protocol: Antiviral potency (EC50) was determined in both stable subgenomic HCV replicon cell lines and transient-transfected HCV replicon cells. The term half maximal effective concentration (EC50) refers to the concentration of a drug which induces a response halfway between the baseline and maximum after the exposure time specified below.
Stable subgenomic HCV replicons for genotype 1a, 1b, 2a, 3a, and 4a were established in Huh-7-derived cells as described by Lohmann et al (Lohmann V, Korner F, Koch J, et al Replication of subgenomic hepatitis C virus RNAs in a hepatoma cell line. Science 1999; 285:119-3). Each stable cell line contains a bicistronic HCV replicon that encodes a humanized Renilla luciferase (hRLuc) reporter gene fused to a selectable neomycin-resistance gene, followed by an EMCV IRES and the NS3-NS5B coding region of HCV. […] Luciferase activity was measured as a marker for intracellular HCV replication levels.
The genotype 1a stable replicon was derived from the H77 HCV strain and contained adaptive mutations P1496L and S2204I. The genotype 1b stable replicon was derived from the Con1 HCV strain and contained adaptive mutations E1202G, T1280I, and K1846T. […] The genotype 3a stable replicon was derived from the S52 HCV strain and contained adaptive mutations P1121 L, A1198T and S2210I (equivalent to S2204I in genotype 1). The genotype 4a stable replicon was derived from the ED43 HCV strain and contained adaptive mutations Q1691R and S2204I. All replicon cell lines were propagated in Huh-7-derived cells and maintained in Dulbecco's modified Eagle's Medium (DMEM) supplemented with 10% fetal bovine serum (FBS) and 0.5 mg/ml G418.
To perform EC50 assays, cells from each HCV replicon were dispensed into 384-well plates. Compounds were dissolved in DMSO at a concentration of 10 mM and diluted in DMSO using an automated pipetting instrument. Three-fold serially diluted compounds were directly added to the cells using an automated instrument. DMSO was used as a negative (solvent; no inhibition) control, and a combination of three HCV inhibitors including a protease inhibitor; an NS5A inhibitor and a nucleoside inhibitor was used at concentrations >100×EC50 as a positive control (100% inhibition). Seventy-two hours later, cells were lysed and Renilla luciferase activity were quantified as recommended by the manufacturer (Promega-Madison, Wis.). Non-linear regression was performed to calculate […], values.

[2] = test system: genotype 3a transient HCV replicon (S52) in Huh-7-derived cells; assay: Transient-transfected HCV replicon, genotype 3a wild type; details: Hepatitis C virus; transient-transfected replicon genotype 3a wild type, 72 h; read-out: EC50 3A WT
[3] = test system: genotype 1a (H77) wild-type transient HCV replicon in Huh-7-derived cells; assay: Transient-transfected HCV replicon, genotype 1a wild type; details: Hepatitis C virus; transient-transfected replicon genotype 1a wild type, 72 h; read-out: EC50 1A WT
[4] = test system: NS3/4a protease inhibitor resistant variant R155K in genotype 1a transient HCV replicon; assay: Transient-transfected HCV replicon, genotype 1a R155K; details: Hepatitis C virus, 72 h, read-out: EC50 1A R155K
[5] = test system: genotype 1b wild-type transient HCV replicon in Huh-7-derived cells; assay: Transient-transfected HCV replicon, genotype 1b wild type; details: Hepatitis C virus; transient-transfected replicon genotype 1b wild type, 72 h; read-out: EC50 1B WT
[6] = test system: NS3/4a protease inhibitor resistant variant D168A in genotype 1b transient HCV replicon; assay: Transient-transfected HCV replicon, genotype 1b D168A; details: Hepatitis C virus, 72 h, read-out: EC50 1B D168A

Row | Compound | EC50 [1] | EC50 [2] | EC50 [3] | EC50 [4] | EC50 [5] | EC50 [6]
1 | CC(C)(C)[C@@H]1NC(=O)O[C@@H]2C[C@@H]3C[C@@H]3[C@H]2CCCCCn2c(nc3cc(C#N)ccc3c2=O)O[C@@H]2C[C@@H](C(=O)N[C@]3(C(=O)NS(=O)(=O)C4(C)CC4)C[C@H]3C(F)F)N(C2)C1=O [Example 25, (1aS,2aR,6S,9S,11R,24aR,24bS)-6-tert-butyl-15-cyano-N-[(1R,2R)-2-(difluoromethyl)-1-{[(1-methylcyclopropyl)sulfonyl]carbamoyl}cyclopropyl]-4,7,18-trioxo-1a,2,2a,4,5,6,7,10,11,20,21,22,23,24,24a,24b-hexadecahydro-1H,9H,18H-8,11-methanocyclopropa[4′,5′]cyclopenta[1′,2′:18,19][1,10,3,6,12]dioxatriazacyclonona decino[11,12-b]quinazoline-9-carboxamide] | 2.72 nM | 7.5 nM | 1.8 nM | 2 nM | 0.7 nM | 4.4 nM
2 | CC(C)(C)[C@@H]1NC(=O)O[C@@H]2C[C@@H]3C[C@@H]3[C@H]2CCCCCc2nc3ccc(C#N)cc3nc2O[C@@H]2C[C@@H](C(=O)N[C@]3(C(=O)NS(=O)(=O)C4(C)CC4)C[C@H]3C(F)F)N(C2)C1=O [Example 23, (33R,35S,91S,93R,94R,95S,5S)-5-(tert-butyl)-17-cyano-N-((1R,2R)-2-(difluoromethyl)-1-(((1-methylcyclopropyl)sulfonyl)carbamoyl)cyclopropyl)-4,7-dioxo-2,8-dioxa-6-aza-1(2,3)-quinoxalina-3(3,1)-pyrrolidina-9(3,4)-bicyclo[3.1.0]hexanacyclotetradecaphane-35-carboxamide] | 2.93 nM | 9.5 nM | 1.2 nM | 2.3 nM | 0.9 nM | 11 nM
3 | CC(C)(C)[C@@H]1NC(=O)O[C@@H]2C[C@@H]3C[C@@H]3[C@H]2CCCCCc2nc3ccc4ccccc4c3nc2OC2C[C@@H](C(=O)N[C@]3(C(=O)NS(=O)(=O)C4(C)CC4)C[C@H]3C(F)F)N(C2)C1=O (stereo partly drawn) [Example 22, (33R,35S,91S,93R,94R,95S,5S)-5-(tert-butyl)-N-((1R,2R)-2-(difluoromethyl)-1-(((1-methylcyclopropyl)sulfonyl)carbamoyl)cyclopropyl)-4,7-dioxo-2,8-dioxa-6-aza-1(2,3)-benzo[f]quinoxalina-3(3,1)-pyrrolidina-9(3,4)-bicyclo[3.1.0]hexanacyclotetradecaphane-35-carboxamide] | 5.06 nM | 5.5 nM | 1.7 nM | 2.7 nM | 2 nM | 18 nM
4 | COc1ccc2c(=O)n3c(nc2c1)O[C@@H]1C[C@@H](C(=O)N[C@]2(C(=O)NS(=O)(=O)C4(C)CC4)C[C@H]2C(F)F)N(C1)C(=O)[C@H](C(C)(C)C)NC(=O)O[C@@H]1C[C@@H]2C[C@@H]2[C@H]1CCCCC3 [Example 26, (1aS,2aR,6S,9S,11R,24aR,24bS)-6-tert-butyl-N-[(1R,2R)-2-(difluoromethyl)-1-{[(1-methylcyclopropyl)sulfonyl]carbamoyl}cyclopropyl]-15-methoxy-4,7,18-trioxo-1a,2,2a,4,5,6,7,10,11,20,21,22,23,24,24a,24b-hexadecahydro-1H,9H,18H-8,11-methanocyclopropa[4′,5′]cyclopenta[1′,2′:18,19][1,10,3,6,12]dioxatriazacyclonona decino[11,12-b]quinazoline-9-carboxamide] | 1.83 nM | 4.5 nM | 0.8 nM | 1 nM | 0.4 nM | 0.9 nM
5 | CC(C)(C)[C@@H]1NC(=O)O[C@@H]2C[C@@H]3C[C@@H]3[C@H]2CCCCCn2c(nc3ccccc3c2=O)O[C@@H]2C[C@@H](C(=O)N[C@]3(C(=O)NS(=O)(=O)C4(C)CC4)C[C@H]3C(F)F)N(C2)C1=O [Example 24, (1aS,2aR,6S,9S,11R,24aR,24bS)-6-tert-butyl-N-[(1R,2R)-2-(difluoromethyl)-1-{[(1-methylcyclopropyl)sulfonyl]carbamoyl}cyclopropyl]-4,7,18-trioxo-1a,2,2a,4,5,6,7,10,11,20,21,22,23,24,24a,24b-hexadecahydro-1H,9H,18H-8,11-methanocyclopropa[4′,5′]cyclopenta[1′,2′:18,19][1,10,3,6,12]dioxatriazacyclonona decino[11,12-b]quinazoline-9-carboxamide] | 3.02 nM | 7.6 nM | 1.7 nM | 1.5 nM | 0.8 nM | 3.3 nM
